Key:
Format in all cases: cell-based, human
[1] = system: PBMC
Experimental: (§1) Epoxyvibsanin B was also tested for cytotoxicity using a Cell Titer 96 Aqueous Non-radioactive kit (Promega, order no. G5421). Phenazine methosulfate (Sigma; catalog no. P 5812) was added as an electron donor to a cell culture containing PBMC (500,000 cells per well) and epoxyvibsanin B (final concentration of 1 μg/ml). 3-(4,5-Dimethylthiazole-2-yl)-5-(3-carbomethoxyphenyl)-2-(4-sulphophenyl)-2H-tetrazolium (MTS) was then added. Cells were incubated for 2 hours in a humidified 37° C., 7% CO2 incubator. The supernatant from the cell culture was harvested and its absorbance at 490 nm was recorded. Cell viability was determined based on the level of MTS (which reacted with mitochondria dehydrogenases enzymes in the living cells), as compared to that obtained from an epoxyvibsanin B-free control experiment. Epoxyvibsanin B was further tested for cytotoxicity toward THP-1 cells.

[2] = system: IL-12 production; assay: IL-12 inhibitory assay in PBMC stimulated with IFN-γ and LPS (IL-12 p70 sandwich ELISA)
Experimental: Mononuclear cells from human peripheral blood (PBMC) were harvested from a leukopak using standard procedures. The cells, diluted to three millions per mL, were maintained in RPMI medium supplemented with fetal calf serum (10%), penicillin (100 U/mL), streptomycin (100 μg/mL) and […] (2 mM). Human interferon gamma (IFN-γ, Boehringer Mannheim; catalog no. 1040596) was diluted to 60 units/mL using the cell-containing supplemented medium. 100 μL of the resulting cell culture was added to each well of a 96-well U-shaped bottom microtiter plate, and incubated overnight in a humidified 37° C., 7% CO2 incubator. Epoxyvibsanin B in 4×RPMI stock medium was added to each well with a final concentration of 1 μg/mL, followed by the addition of lipopolysaccharide (LPS, Serratia […] Sigma; catalog no. L-4766) in 4×RPMI stock medium with a final concentration of 1 μg/mL. The plate was gently vortexed and continuously incubated for 16 hrs. IFN-γ and LPS have stimulated PBMC for IL-12 production. The supernatant from each cell culture was harvested, and the secreted IL-12 p70 in the supernatant was quantitated with a sandwich ELISA using anti-human IL-12 antibodies (R & D systems; catalog no. mAb 611 and catalog no. BAF 219). An epoxyvibsanin B-free control experiment was also perfonned. […] The inhibition of IL-12 production was further tested in parallel experiments using two cell lines: PBMC and the human promonocytic leukemia mononuclear cells (THP-1 cells). As described above, PBMC were added to a 96-well plate with 500,000 cells per well, and stimulated for IL-12 production with IFN-γ (200 U/ml) and LPS (1 μg/ml). In parallel, THP-1 cells were added to a 96-well plate with 800,000 cells per well, and stimulated for IL-12 production with IFN-γ (2000 U/ml) and Staph Aureus Cowan I (0.05%, SAC or Pansorbin; from Calbiochem; lot no. B15921). The supernatant from each cell culture was harvested and analyzed for IL-12 p70 with a sandwich ELISA by using the antibodies indicated above. […]

[3] = system: THP-1 cells; assay: Cytotoxicity assay (MTS) in THP-1 cells
Experimental: as §1

[4] = system: IL-12 production; assay: IL-12 inhibitory assay in THP-1 cells stimulated with IFN-γ and SAC (IL-12 p70 sandwich ELISA); conditions: THP-1 800,000 cells per well, IFN-γ 2000 U/ml + SAC 0.05%; read-out: IC50, inhibition of IL-12 production
Experimental: The inhibition of IL-12 production was further tested in parallel experiments using two cell lines: PBMC and the human promonocytic leukemia mononuclear cells (THP-1 cells). As described above, PBMC were added to a 96-well plate with 500,000 cells per well, and stimulated for IL-12 production with IFN-γ (200 U/ml) and LPS (1 μg/ml). In parallel, THP-1 cells were added to a 96-well plate with 800,000 cells per well, and stimulated for IL-12 production with IFN-γ (2000 U/ml) and Staph Aureus Cowan I (0.05%, SAC or Pansorbin; from Calbiochem; lot no. B15921). The supernatant from each cell culture was harvested and analyzed for IL-12 p70 with a sandwich ELISA by using the antibodies indicated above. […] The activity of epoxyvibsanin B in inhibiting IL-12 production is 10-fold that of a known anti-inflammatory compound, dexamethazone.

epoxyvibsanin B
CC50 [1]: 5000 nM
cytotoxicity compared with dexamethazone [1]: lower than that of dexamethazone
IC50 ([2]; PBMC 500,000 cells per well, IFN-γ 200 U/ml + LPS 1 μg/ml, read-out: IC50, inhibition of IL-12 production): ~1 nM
inhibition of IL-12 production, as compared with control ([2]; PBMC, IFN-γ 60 units/mL + LPS 1 μg/mL, compound 1 μg/mL, 16 hrs): 90%
activity in inhibiting IL-12 production relative to dexamethazone ([2]; compared with dexamethazone, cell type not specified): 10 fold
CC50 [3]: 10000 nM
IC50 [4]: 20 nM

From US6462078B1, “Epoxyvibsanin B” (priority 2001, dated 2002)
